Assay results: patent publication US20230127202A1, “LONG-TERM PROBIOTIC BACTERIAL STORAGE AT AMBIENT TEMPERATURE” (CORNELL UNIVERSITY, priority 2021, published 2023)

Tested on: Lactobacillus rhamnosus GG (LGG, ATCC 53103)
Experiment: Bacterial survivability test (colony count) of LGG stored in food-grade oils at room temperature
Assay type: physicochemical
Conditions: under all conditions
Description: PBS at pH 7.4 was used as a control for each temperature. Each individual vial containing 20 mL of oil was heated to reach the desired temperature and the temperature equilibrated for 15-20 minutes. To each heated vial, 0.05 g of LGG powder was added. For prebiotic treatment, 0.05 g of inulin were added before the addition of LGG. The vial containing the oil-bacteria mixture was held at temperature for 1 minute with gentle stirring. Finally, the vial was taken out of the oil bath and cooled to room temperature over a range of 25 to 45 minutes depending on the heating treatments. As control samples, the LGG powder was added to each type of oil and PBS (pH 7.4) with the samples not heated. FIG. 1A illustrates the experimental set up for the heat treatment.
To prevent bacterial growth during storage of probiotics in aqueous solutions, oil was used as a barrier to water penetration and thus serves to preserve and prevent spoilage of the probiotic products. Before the storage of bacteria in oil, the LGG concentration in each type of oil was quantified and recorded as the initial concentration. […] The control medium was 20 mL of PBS at pH 7.4. For the control sample, 0.05 g of the bacteria were added to PBS and, after mixing, cultured on MRS agar plates. […] The survivability of the bacteria was assessed at specific time points over a year using the colony count technique. […]

Row | Molecule | effect on survival rates of the bacteria
1 | inulin | reduced the survival rates

Tested on: LGG isolates
Experiment: Antimicrobial susceptibility (MIC) test, Sensititre COMPGP1F gram-positive panel, CLSI interpretation
Assay type: cell-based, Lactobacillus rhamnosus GG
Conditions: all LGG isolates after heat treatment and storage
Description: Antimicrobial susceptibility or minimum inhibitory concentration (MIC) test was performed using the Sensititre® system COMPGP1F gram-positive systemic panel. The test used the Clinical and Laboratory Standards Institute (CLSI) guidelines for interpretation of MIC values. All of the isolates were examined for susceptibility to 23 antimicrobial agents included in the gram-positive panel of the National Antimicrobial Resistance Monitoring System (NARMS), including amikacin, ampicillin, augmentin, cefazolin, cefovecin, cefpodoxime, cephalothin, chloramphenicol, clindamycin, doxycycline, enrofloxacin, erythromycin, gentamicin, imipenem, marbofloxacin, minocycline, nitrofurantoin, oxacillin + 2% NaCl, penicillin, pradofloxacin, rifampin, tetracycline, trim/sulfa.

Row | Molecule | antimicrobial sensitivity of the isolates (CLSI interpretation of MIC)
2 | CC1(C)S[C@@H]2[C@H](NC(=O)[C@H](N)c3ccccc3)C(=O)N2[C@H]1C(=O)O [ampicillin] | intermediate sensitivity
3 | Cc1nnc(SCC2=C(C(=O)O)N3C(=O)[C@@H](NC(=O)Cn4cnnn4)[C@H]3SC2)s1 [cefazolin] | resistance
4 | CC[C@H]1OC(=O)[C@H](C)[C@@H](O[C@H]2C[C@@](C)(OC)[C@@H](O)[C@H](C)O2)[C@H](C)[C@@H](O[C@@H]2O[C@H](C)C[C@H](N(C)C)[C@H]2O)[C@](C)(O)C[C@@H](C)C(=O)[C@H](C)[C@@H](O)[C@]1(C)O [erythromycin] | susceptible
5 | augmentin | susceptible
6 | oxacillin [oxacillin + 2% NaCl] | susceptible
7 | penicillin | resistance
